In patent publication US10258583B2, “Extended release liquid compositions of guanfacine” (SUN PHARMACEUTICAL INDUSTRIES LIMITED, priority 2014, dated 2019):

Columns and labels:
[1] = pH dependent degradation profile - solution state stability; type: physicochemical
Text: Guanfacine, particularly guanfacine hydrochloride, is found to degrade at high pH values. […] One of the major impurity of guanfacine is 2,6-dichlorophenyl acetic acid. [table]

[2] = Osmolality measurements (Osmomat 030-D); type: physicochemical; details: samples of composition prepared as per Example 13
Text: The term “osmolality,” as used herein, means the number of moles of any water-soluble compound per kg of the carrier. In the present invention, the osmolality may be measured according to known methods, such as using a Vapor pressure Osmometer, a Colloid Osmometer, or a Freezing Point Depression Osmometer such as Osmomat® 030-D or Osmomat® 3000, in particular by a Freezing Point Depression Osmometer. In the present invention, pharmaceutically acceptable carrier has an osmolality of about 1 osmol/kg or more than about 1 osmol/kg of the pharmaceutically acceptable carrier.
The term “osmolality ratio,” as used herein, means the ratio of osmolality of the external phase to the osmolality of the internal phase. […]
Xylitol, microcrystalline cellulose-sodium carboxymethyl cellulose, xanthan gum, strawberry flavor, sucralose, citric acid, methyl paraben, propyl paraben and colloidal silicon dioxide, purified water were mixed as per Example 13. This suspension was then filtered and diluted with purified water, and the osmolality of the external phase was measured using Osmomat 030-D.
Various solutions having various concentrations of sodium chloride were prepared as per Examples (A)-(D). The osmolalities of these solutions were measured using Osmomat 030-D.
Sodium chloride was dissolved in purified water as per Examples A-D. The osmolality of these solutions were measured using Osmomat 030-D.

[3] = cited from earlier work

Cl.N=C(N)NC(=O)Cc1c(Cl)cccc1Cl [Guanfacine hydrochloride, N-amidino-2-(2,6-dichlorophenyl)-acetamide monohydrochloride]
% Assay ([1]; pH 1.2, 0 hours): 101.2% | % Assay ([1]; pH 1.2, 1 hour): 101.2% | % Assay ([1]; pH 1.2, 4 hours): 101.2% | % Assay ([1]; pH 1.2, 8 hours): 101.1% | % Assay ([1]; pH 1.2, 16 hours): 101.6% | % Assay ([1]; pH 1.2, 24 hours): 101.4% | % Assay ([1]; pH 2.2, 0 hours): 100.3% | % Assay ([1]; pH 2.2, 1 hour): 100.5% | % Assay ([1]; pH 2.2, 4 hours): 100.4% | % Assay ([1]; pH 2.2, 8 hours): 100.4% | % Assay ([1]; pH 2.2, 16 hours): 100.3% | % Assay ([1]; pH 2.2, 24 hours): 100.2% | % Assay ([1]; pH 4.5, 0 hours): 99.4% | % Assay ([1]; pH 4.5, 1 hour): 99.0% | % Assay ([1]; pH 4.5, 4 hours): 98.7% | % Assay ([1]; pH 4.5, 8 hours): 98.9% | % Assay ([1]; pH 4.5, 16 hours): 98.7% | % Assay ([1]; pH 4.5, 24 hours): 98.5% | % Assay ([1]; pH 6.8, 0 hours): 99.5% | % Assay ([1]; pH 6.8, 1 hour): 99.0% | % Assay ([1]; pH 6.8, 4 hours): 97.2% | % Assay ([1]; pH 6.8, 8 hours): 93.7% | % Assay ([1]; pH 6.8, 16 hours): 86.3% | % Assay ([1]; pH 6.8, 24 hours): 79.9% | % Assay ([1]; pH 7.5, 0 hours): 100.9% | % Assay ([1]; pH 7.5, 1 hour): 99.9% | % Assay ([1]; pH 7.5, 4 hours): 97.1% | % Assay ([1]; pH 7.5, 8 hours): 92.2% | % Assay ([1]; pH 7.5, 16 hours, listed as guanfacine, monohydrochloride): 84% | % Assay ([1]; pH 7.5, 16 hours, monohydrochloride): 84.0% | % Assay ([1]; pH 7.5, 24 hours): 77.5% | Osmolality [2]: 0.006 OSMOL/Kg | solubility in acetone ([3]; acetone): slightly soluble | solubility in alcohol ([3]; alcohol): sparingly soluble | solubility in water ([3]; water): approximately 1 mg/mL
